Data on six compounds can be found in PMC6153520, “Proteasome inhibition and mechanism of resistance to a synthetic, library-based hexapeptide” (Investigational New Drugs, 2018).

Where two headings read alike, the source gives them in different places. Where a SMILES comes first, the peptide text is derived from it. The star is where a group is joined. Cbz = O=C(OCc1ccccc1)*; NHBn = c1ccc(CN*)cc1; OBn = c1ccc(CO*)cc1; Bn = c1ccc(C*)cc1; OtBu = CC(C)(C)O*

Assay [1] concerns THP1/WT cells. Nature of the assay: Apoptosis assay (Annexin-V/7-AAD flow cytometry). The format is cell-based, human. The following applies: 24 h exposure. How it is done:
(§1) Induction of apoptosis was analyzed by flow cytometry using APOPTEST™-FITC A700 (VPS Diagnostics, Hoeven, the Netherlands) according to the instructions of the manufacturer. In short, induction of apoptosis was determined after 24 h’ drug exposure. One million cells were harvested and washed 3 times with ice-cold PBS. The cell pellet was incubated for 30 min with 7-Amino-actinomycin D (7-AAD) on ice followed by incubation with Annexin-V according to the instructions of the manufacturer. Annexin-V (early apoptosis) and 7-AAD (late apoptosis) staining was measured by flow cytometry (Beckton & Dickinson, FACScalibur) and analysed using FCSexpress V3 software (Denovo software, Thornhill, Canada).
(In general: A flow cytometer gives signals particle by particle.)

The subject of another assay is THP1/BTZ200 cells. Nature of the assay: Apoptosis assay (Annexin-V/7-AAD flow cytometry). The format is cell-based, human. Conditions: 24 h, 4A6 over 0–25 μM. As to the method: as §1
In assay [2] the target is T1, chymotrypsin-like proteasome activity (Homo sapiens, UniProt P28074).
T1 construct: chymotrypsin-like proteasome activity in intact THP1 cells after 1 h exposure; endogenous in cells; host or cells: THP1 (wild type)
Nature of the assay: Proteasome-Glo cell-based assay in intact THP1 cells. The following applies: 1 h exposure, mean of 3 experiments ± S.D., read-out: IC50, inhibition of chymotrypsin-like proteasome activity.

Assay [3] deals with THP1/WT. The format is cell-based, human. The following applies: 72 h. As to the method:
Human monocytic/macrophage THP1 cells (ATTC, Manassas, USA) were cultured in RPMI-1640 medium supplemented with 5% fetal calf serum, 20 mM HEPES, 2 mM glutamine and 100 μg/ml penicillin/ streptomycin at 5% CO2 and 37 °C. Cell cultures were seeded at a density of 3 × 10^5 cells/ml and refreshed twice weekly. […] Some specific experiments also included THP1/BTZ100 cells that were cultured in the absence of BTZ for 6 months (further designated as THP1/BTZ (−100) cells). Mouse thymoma EL4 and human multiple myeloma H929 cells were cultured in RPMI-1640 medium supplemented with 8% fetal calf serum and 100 μg/ml penicillin/streptomycin at 5% CO2 and 37 °C.
(§2) Evaluation of drug sensitivity was carried out as described before. Cells were seeded at an initial density of 1.25 × 10^5 cells/ml in individual wells of a 24-well plate containing up to 50 μl of drug solutions. Inhibition of cell growth was determined after 72 h of incubation at 37 °C by determining the number of viable cells […] using trypan blue exclusion. The drug concentration required to inhibit cell growth by 50% compared to untreated controls was defined as the IC50.

The next assay has as its system proteasome β-subunits. The experiment in a line: Proteasome affinity labelling and recovery in H929 cells. Conditions: 5 μM MG132 (1 h) or 20 nM bortezomib (1 h). The format is cell-based, human.
A short description of assay [4]: Cell growth inhibitory potential of cleavage product (data not shown). The format is cell-based.
The next assay has as its system proteasome. Nature of the assay: Proteasome inhibitory effect of cleavage product (data not shown).
Another assay deals with THP1/BTZ100. The following applies: relative to THP1/WT; ref Oerlemans et al. [46]; cited from earlier work.
A further assay deals with SNB-19. Nature of the assay: NCI60 tumor cell line screen. Conditions: Homo sapiens, CNS, 48 h drug exposure, read-out: LOG10 GI50 (converted). The format is cell-based.
Assay [5] has as its system THP1/WT. Also noted: method as in Oerlemans et al. [46]. Conditions: ref Oerlemans et al. [46], cited from earlier work.
For a further assay, the system named is SK-MEL-5. Nature of the assay: NCI60 tumor cell line screen. The following applies: Homo sapiens, Melanoma, 48 h drug exposure, read-out: LOG10 GI50 (converted). The format is cell-based.
For another assay, the system named is K-562. Nature of the assay: NCI60 tumor cell line screen. The format is cell-based. Conditions: Homo sapiens, K562, Leukemia, 48 h drug exposure, read-out: LOG10 GI50 (converted).
For the next assay, the system named is NCI-H226. The experiment in a line: NCI60 tumor cell line screen. The format is cell-based. Conditions: Homo sapiens, NSC Lung, 48 h drug exposure, read-out: LOG10 GI50 (converted).
The test system of a further assay is THP1/BTZ200. The following applies: relative to THP1/WT; ref Oerlemans et al. [46]; cited from earlier work.
The next assay relates to DU-145. The experiment in a line: NCI60 tumor cell line screen. The format is cell-based. The following applies: Homo sapiens, Prostate, 48 h drug exposure, read-out: LOG10 GI50 (converted).
Another assay relates to SK-OV-3. The experiment in a line: NCI60 tumor cell line screen. Conditions: Homo sapiens, Ovarian, 48 h drug exposure, read-out: LOG10 GI50 (converted). The format is cell-based.
Assay [6] has as its system THP1/WT cells. Nature of the assay: Western blot, accumulation of ubiquitinated proteins. Conditions: 24 h exposure. The format is cell-based, human. As to the method: Western blot analysis to determine protein levels of (i) β1, β2 and β5 proteasome subunits and (ii) the accumulation of ubiquitinated proteins after treatment with 4A6 was performed essentially as described previously. Cells were harvested in the mid-log phase of growth and washed 3 times with ice-cold buffered saline pH 7.4. Total cell lysates of 5 × 10^6 cells were prepared by resuspension in 500 μl lysis buffer containing: 50 mM Tris-HCl (pH 7.6), 5 mM dithiotreitol, 20 μl PIC (Protease Inhibitor Cocktail; 1 tablet/ml H2O), 20% glycerol and 0.5% NP-40. The suspension was sonicated (MSE sonicator, amplitude 7, for 3 × 5 s with 20 s time intervals at 4 °C) and centrifuged in an Eppendorf micro centrifuge (5 min, 12,000 rpm, 4 °C). Protein content of the supernatant was determined by the Bio-Rad protein assay. 20–30 μg of total cell lysates were fractionated on a 10% polyacrylamide gel containing SDS and transferred onto a PVDF membrane. The membranes were pre-incubated overnight at 4 °C in blocking buffer (5% Bio-Rad Blocker in TBS-T; 10 mM Tris-HCl, pH 8.0, 0.15 M NaCl, 0.1% Tween-20) to prevent non-specific antibody binding. After blocking, the membranes were incubated for 1 h at room temperature with primary antibodies for proteasome subunit β1 (1:1000, PW8140), β2 (1:1000, PW8145) and β5 (1:1000, PW8895) or ubiquitin (1:1000, Santa-Cruz, SC-8017). An antibody to α-tubulin was used (1:1000, Santa Cruz, sc-8035) to check and normalize for any loading differences. After 3 washing steps with TBS-T, the membranes were incubated for 1 h with HRP-labelled donkey-anti-rabbit (1:6000, Amersham, UK) or goat-anti-mouse (1:6000, Dako, Glostrup, Denmark) as secondary antibody. Detection of antibody binding was followed by chemoluminescence using Supersignal (Pierce Biotechnology, Rockford, USA) according to the manufacturers’ instructions. […] The signal intensity was determined densitometrically using Quantity One software (Bio-Rad) and was expressed relative to the intensity of the α-tubulin signal.
Background: In western blotting, separated proteins are transferred to a membrane and probed.

Another assay relates to THP1/BTZ50. Conditions: relative to THP1/WT; ref Oerlemans et al. [46]; cited from earlier work.
The subject of a further assay is SNB-75. The experiment in a line: NCI60 tumor cell line screen. The format is cell-based. The following applies: Homo sapiens, CNS, 48 h drug exposure, read-out: LOG10 GI50 (converted).
The subject of assay [7] is β5 subunit of the proteasome. Also noted: method as in PMID 16286248, PMID 16455650. The following applies: ref [15], [21]; read-out: IC50, proteasome inhibition; cited from earlier work.
Another assay concerns THP1 cells. Nature of the assay: Growth inhibition with or without Ruthenium Red. The format is cell-based, human. Conditions: 72 h, with or without 25 μM Ruthenium Red. How it is done:
as §2

The subject of another assay is HS 578T. Nature of the assay: NCI60 tumor cell line screen. The following applies: Homo sapiens, Breast, 48 h drug exposure, read-out: LOG10 GI50 (converted). The format is cell-based.
For assay [8], the system named is NCI60 tumor cell line panel. The experiment in a line: NCI60 panel COMPARE analysis. The format is cell-based, human. The following applies: mean log10GI50, 2 days of drug exposure.
The test system of the next assay is COLO 205. Nature of the assay: NCI60 tumor cell line screen. The format is cell-based. Conditions: Homo sapiens, Colon, 48 h drug exposure, read-out: LOG10 GI50 (converted).
The next assay has as its system A549/ATCC. Nature of the assay: NCI60 tumor cell line screen. The format is cell-based. Conditions: Homo sapiens, NSC Lung, 48 h drug exposure, read-out: LOG10 GI50 (converted).
The subject of a further assay is HT29. The experiment in a line: NCI60 tumor cell line screen. The format is cell-based. Conditions: Homo sapiens, HT-29, Colon, 48 h drug exposure, read-out: LOG10 GI50 (converted).
A further assay concerns CCRF-CEM. Nature of the assay: NCI60 tumor cell line screen. The format is cell-based. Conditions: Homo sapiens, Leukemia, 48 h drug exposure, read-out: LOG10 GI50.

Regarding `COc1cc([C@@H]2c3cc4c(cc3[C@@H](O[C@@H]3O[C@@H]5CO[C@@H](C)O[C@H]5[C@H](O)[C@H]3O)[C@H]3COC(=O)[C@H]23)OCO4)cc(OC)c1O` [etoposide, reference compound], the induction of apoptosis result with THP1/WT cells [1] and in the assay on THP1/BTZ200 cells was “equally effective in inducing apoptosis” in each case.
As usually defined, the IC50 is the concentration needed to halve the response being measured. Turning to “4A6-dimer: dimer form of 4A6, contains the same amino acid sequence as 4A6 (THTXEG; The dimer linkage, and any protecti)”, the IC50 in assay [2] came to 490 ± 120 nM.
`CC(=O)N[C@H](C(=O)N[C@@H](CCC(=O)OC(C)(C)C)C(=O)N[C@@H](CCC(=O)OCc1ccccc1)C(=O)N[C@@H](CC(=O)OC(C)(C)C)C(=O)N[C@@H](CCC(=O)OC(C)(C)C)C(=O)NCC(=O)NCc1ccccc1)[C@@H](C)OCc1ccccc1` [4E11, Ac-Thr(OBzl)-Glu(OtBu)-Glu(OBzl)-Asp(OtBu)-Glu(OtBu)-Gly-Bza] (Ac-T(Bn)E(OtBu)E(OBn)D(OtBu)E(OtBu)G-NHBn) registered an IC50 in the assay on THP1/WT [3] of 3900 ± 800 nM.
As to `CC(C)C[C@@H](C=O)NC(=O)[C@H](CC(C)C)NC(=O)[C@H](CC(C)C)NC(=O)OCc1ccccc1` [MG132, Z-Leu-Leu-Leucinal] (Cbz-Leu-Leu-Leu-aldehyde), the “inhibition of β-subunit activity probing” value in the assay with proteasome β-subunits is recorded as “blocked activity probing of all β-subunits”.
Regarding Ac-Thr(tBu)-His(Bzl)-Thr(Bzl)-Nle-OH, the “cell growth inhibitory potential” value in assay [4] was “did not show any proteasome inhibitory effect or cell growth inhibitory potential”. In the assay on proteasome, the proteasome inhibitory effect entry is on record as “did not show any proteasome inhibitory effect”.
One may read the GI50 as the concentration giving 50% growth inhibition. As to `CC(C)C[C@H](NC(=O)[C@H](Cc1ccccc1)NC(=O)c1cnccn1)B(O)O` [Bortezomib, Pyrazylcarbonyl-Phe-Leu-boronate], the “[Resistance Factor] THP1/BTZ100” value in the assay on THP1/BTZ100 is 79. Further, the GI50 in the assay on SNB-19 was 0.724 nM; in the assay on SK-MEL-5, 0.11 nM; in the assay on K-562, 0.422 nM; in the assay with NCI-H226, 0.105 nM; in the assay on DU-145, 0.891 nM; in the assay on SK-OV-3, 32.9 nM. For the same compound, the GI50 in the assay on SNB-75 was 1.95 nM; in the assay with HS 578T, 0.422 nM; in the assay with COLO 205, 0.363 nM; in the assay on A549/ATCC, 2.44 nM; with HT29, 0.389 nM; in the assay on CCRF-CEM, 0.1 nM. Moreover, the IC50 with THP1/WT [5] (growth inhibition) is 0.0033 ± 0.0006 µM; in assay [7], 3 to 5 nM. For the same compound, the “[Resistance Factor] THP1/WT” value in the assay with THP1/WT [5] (reference value in square brackets) is 1. Also, the “[Resistance Factor] THP1/BTZ200” value in the assay with THP1/BTZ200 is 129. Besides, in the assay on THP1/WT cells [6], the “accumulation of ubiquitinated proteins” value is given as “marked accumulation of ubiquitinated proteins”. In addition, the “[Resistance Factor] THP1/BTZ50” value in the assay on THP1/BTZ50 was 45. The “inhibition of β-subunit activity probing” value in the assay on proteasome β-subunits is listed as “predominantly inhibited β5-subunit probing”. In addition, the “effect of Ruthenium Red on growth inhibitory activity (protection)” value with THP1 cells is listed as “marked abrogation”. Further, the “orders of magnitude more potent than 4A6” value in [8] was 2–3 orders of magnitude.
